# In article PMC10319141, “Imidazoquinolines with improved pharmacokinetic properties induce a high IFNα to TNFα ratio in vitro and in vivo” (Frontiers in Immunology, 2023):
# How the values were obtained:
# human TLR8 = biological target: T1, human TLR8 (Homo sapiens, UniProt Q9NR97); assay: HEK-Blue hTLR8 SEAP reporter assay; assay type: cell-based; conditions: for TLR8 activity rel. to assay max: average maximal SEAP secretion relative to maximum secretion observed in the assay; for SEAP secretion from HEK-Blue hTLR-8: in words
# T1 construct: host or cells: HEK blue hTLR8 reporter cells
# T1 sequence (Q9NR97 27-1041): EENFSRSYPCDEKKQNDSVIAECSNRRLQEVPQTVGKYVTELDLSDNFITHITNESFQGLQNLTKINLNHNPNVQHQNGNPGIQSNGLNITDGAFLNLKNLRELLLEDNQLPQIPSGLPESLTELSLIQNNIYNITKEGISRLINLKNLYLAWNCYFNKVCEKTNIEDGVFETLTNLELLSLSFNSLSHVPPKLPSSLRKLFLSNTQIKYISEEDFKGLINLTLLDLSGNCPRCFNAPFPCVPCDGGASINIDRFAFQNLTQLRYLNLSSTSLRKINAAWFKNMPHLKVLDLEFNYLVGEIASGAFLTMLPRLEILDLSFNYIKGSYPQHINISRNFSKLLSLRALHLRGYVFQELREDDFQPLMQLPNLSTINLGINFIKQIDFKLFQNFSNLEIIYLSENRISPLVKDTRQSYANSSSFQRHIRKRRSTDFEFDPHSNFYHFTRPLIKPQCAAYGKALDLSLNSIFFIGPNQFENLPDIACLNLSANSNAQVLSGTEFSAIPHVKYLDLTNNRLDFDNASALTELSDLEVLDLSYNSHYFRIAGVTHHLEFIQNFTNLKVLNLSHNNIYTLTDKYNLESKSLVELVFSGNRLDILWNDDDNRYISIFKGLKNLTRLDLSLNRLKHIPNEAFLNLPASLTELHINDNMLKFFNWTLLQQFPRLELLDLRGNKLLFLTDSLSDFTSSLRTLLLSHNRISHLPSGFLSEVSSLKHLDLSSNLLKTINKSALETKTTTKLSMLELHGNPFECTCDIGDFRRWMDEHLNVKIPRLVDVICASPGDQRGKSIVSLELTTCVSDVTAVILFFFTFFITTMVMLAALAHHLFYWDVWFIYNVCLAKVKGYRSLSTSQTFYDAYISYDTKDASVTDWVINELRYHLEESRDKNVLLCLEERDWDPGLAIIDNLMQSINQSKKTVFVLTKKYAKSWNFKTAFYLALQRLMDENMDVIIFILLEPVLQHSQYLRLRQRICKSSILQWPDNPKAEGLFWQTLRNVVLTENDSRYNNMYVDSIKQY
# Description: HEK blue hTLR7 or hTLR8 reporter cells (Invivogen) were cultivated in DMEM High Glucose (Biowest) according to the manufacturer’s instructions. Cells were treated with test compounds and controls at various concentrations in serum-free DMEM and incubated at 37°C, 5% CO2 for 24 h before supernatants were collected.
# Relative secreted embryonic alkaline phosphatase (SEAP) activity in the supernatants was determined by quantification of para-Nitrophenyl Phosphate (pNPP)-turnover. Supernatants were diluted 10-fold in a solution containing 1 mM MgCl2, 1 M diethanolamine and 1 mg/mL pNPP and incubated at RT for 15 min before the reaction was stopped by the addition of 0.25 volumes of 1 M NaOH. Absorbance was measured at 405 nm on a Versamax microplate reader (Molecular Devices) and normalized to the mean of >5 solvent controls.
# To obtain reliable estimates, replicate measurements of a minimum of 2 experiments were normalized to the maximal SEAP activity of a compound in a given experiment and pooled before fitting a non-linear function to the data.
# [1] = tested on: TNFα and IFNα in peripheral plasma; assay: Cytokine AUC in peripheral plasma after activity-adjusted s.c. doses (Figure 5C, Table 2 bottom); assay type: in vivo, C57BL/6 mice; conditions: for IFNα AUC / TNFα AUC: 8 h period; for IFNα AUC / TNFα AUC / INFα AUC / TNFα AUC: doses adjusted to activity (bottom section); for dose ratio, times the molar dose of RSQ leading to comparable amounts of IFNα / dose ratio, times the molar dose of RSQ necessary to induce similar levels of TNFα: comparison of AUC, s.c.
# Description: Cytokine concentrations in samples were quantified either by ELISA (hTNFα, R&D Systems; hIFNα, Mabtech) or cytometric bead arrays (CBA, LegendPlex mouse anti-virus response panel, BioLegend) according to the manufacturer’s instructions. CBAs were acquired on a ZE5 Cell Analyzer (Bio-Rad) and analyzed using the LegendPlex Software Suite (Qognit/BioLegend). Absorbance of ELISA-samples was quantified using a Versamax microplate reader (Molecular Devices).
# Formulation. Test compounds were prepared for application in either 1% Tween 80, 9% PEG400 in ultrapure water (Biowest) (i.v., i.p., p.o. application) or 5 mM citric acid in 0.9% saline (Braun) (subcutaneous application). If compounds were administered subcutaneously, injections were carried out into the neck crease.
# Collection of Samples. Mice were bled from the tail vein at various timepoints. Heparin (Sigma) or K2-EDTA (Sigma) was added to blood samples to a final […] concentration of 10-15 Unit or 5 mM. Plasma was generated by centrifugation at 6800xg for 8 min at 4°C and stored at -80°C until analyzed by ELISA or CBA. Animals were sacrificed after the indicated time points by CO2 inhalation. Heart blood and organs for compound quantification by HPLC-MS/MS were collected post mortem and stored at –20°C until extracted as described above.
# Compound concentration in (A) peripheral blood collected via tail bleeding before, 15, 30 60, 120, 240, 360 and 480 min after s.c. compound application and (B) organs collected after 8 h was assessed via HPLC-MS/MS. (A, B) Data are presented as mean ± SD. (C) Levels of TNFα and IFNα as well as (D) IL6, CXCL1, CCL2, IFNβ, IFNγ and IL10 in tail plasma over time were determined via cytometric bead array. Area under the curve (AUC) of each cytokine was plotted against compound concentration. Data are represented as mean ± 95% confidence interval.
SMILES,TLR8 activity rel. to assay max (human TLR8),SEAP secretion from HEK-Blue hTLR-8 (human TLR8),IFNα AUC ([1]; 1 µmol/kg s.c.) [pg·min/mL],TNFα AUC ([1]; 1 µmol/kg s.c.) [pg·min/mL],INFα AUC / TNFα AUC ([1]; 1 µmol/kg s.c.),IFNα AUC ([1]; 3 µmol/kg s.c.) [pg·min/mL],TNFα AUC ([1]; 3 µmol/kg s.c.) [pg·min/mL],INFα AUC / TNFα AUC ([1]; 3 µmol/kg s.c.),IFNα AUC ([1]; 6 µmol/kg s.c.) [pg·min/mL],TNFα AUC ([1]; 6 µmol/kg s.c.) [pg·min/mL],INFα AUC / TNFα AUC ([1]; 6 µmol/kg s.c.),IFNα AUC ([1]; 12 µmol/kg s.c.) [pg·min/mL],TNFα AUC ([1]; 12 µmol/kg s.c.) [pg·min/mL],INFα AUC / TNFα AUC ([1]; 12 µmol/kg s.c.),"dose ratio, times the molar dose of RSQ leading to comparable amounts of IFNα [1]","dose ratio, times the molar dose of RSQ necessary to induce similar levels of TNFα [1]",IFNα AUC ([1]; 0.1 µmol/kg s.c.) [pg·min/mL],TNFα AUC ([1]; 0.1 µmol/kg s.c.) [pg·min/mL],IFNα AUC ([1]; 0.3 µmol/kg s.c.) [pg·min/mL],TNFα AUC ([1]; 0.3 µmol/kg s.c.) [pg·min/mL]
CCCCc1nc2c(N)nc3ccccc3c2n1CCC1CCN(C(=O)CN(C)CC(=O)N(C)C2CC(C)OC(OC3C(C)C(OC4CC(C)(OC)C(O)C(C)O4)C(C)C(=O)OC(CC)C(C)(O)C(O)C(C)N(C)CC(C)CC3(C)O)C2O)CC1 (stereo not shown) [A1-mac],5% ± 3%,close to baseline,33000,7200,5,300000,14000,22,1.6e+06,38000,42,1.9e+06,65000,30,6-10 times,30-40 times,,,,
CCCCc1nc2c(N)nc3ccccc3c2n1CCC1CCNCC1 [A1],11% ± 8%,close to baseline,70000,9700,7,490000,11000,44,1.1e+06,20000,58,1.9e+06,44000,44,6-10 times,30-40 times,,,,
CCCCc1nc2c(N)nc3ccccc3c2n1CC1CCN(C(=O)CN(C)CC(=O)N(C)[C@H]2C[C@@H](C)O[C@@H](O[C@@H]3[C@@H](C)[C@H](O[C@H]4C[C@@](C)(OC)[C@@H](O)[C@H](C)O4)[C@@H](C)C(=O)O[C@H](CC)[C@@](C)(O)[C@H](O)[C@@H](C)N(C)C[C@H](C)C[C@@]3(C)O)[C@@H]2O)CC1 [A2-mac],4% ± 1%,close to baseline,,,,,,,,,,,,,,,,,,
"CCOCc1nc2c(N)nc3ccccc3c2n1CC(C)(C)O [RSQ, Resiquimod, reference compound]",96% ± 4%,,1.1e+06,120000,,970000,150000,,,,,,,,,,110000,17000,560000,50000
